Reference: patent US20120197004A1, “NOVEL ANTI-MICROBIAL PEPTIDOMIMETIC COMPOUNDS AND METHODS TO CALCULATE ANTI-MICROBIAL ACTIVITY” (priority 2006, published 2012)
Values after ≈ are worked out from the molar mass of the structure shown. Read-outs that look alike come from different tables or passages of the source. Where a SMILES comes first, the peptide text is derived from it. [ ]: non-standard residue; d: D form. ξ: configuration not given here. Oic = O=C(O)[C@@H]1C[C@@H]2CCCC[C@@H]2N1; Tic = O=C(O)[C@@H]1Cc2ccccc2CN1; ξTic = O=C(O)C1Cc2ccccc2CN1; ξOic = O=C(O)C1CC2CCCCC2N1; Dab = NCC[C@H](N)C(=O)O; Ahx = NCCCCCC(=O)O; GABA = NCCCC(=O)O; βAla = NCCC(=O)O

Legend:
[1] = test system: Staphylococcus aureus Methicillin/Gentamicin/Tetracycline Resistant (ATCC 33592); conditions: in vitro MIC; tested at 100, 30, 10, 3, 1, 0.3 and 0.1 μM in 1% DMSO
[2] = test system: Mycobacterium ranae (ATCC 110); conditions: ATCC 110
F. tularensis SCHU-S4 = conditions: in vitro MIC
Bacillus anthracis Ames = conditions: in vitro MIC
B. melitensis 16M = conditions: in vitro MIC
Plague CO92 = conditions: in vitro MIC
in vitro [3] = conditions: monkey, microsomes, pH 7.4
in vitro [4] = conditions: dog, microsomes, pH 7.4
in vitro [5] = conditions: rat, microsomes, pH 7.4
in vitro [6] = conditions: mouse, microsomes, pH 7.4
[7] = test system: Salmonella typhimurium (ATCC 13311); conditions: ATCC 13311
[8] = test system: Bacillus subtillis (ATCC 43223); conditions: ATCC 43223
in vitro [9] = conditions: human, microsomes, pH 7.4

SMILES: CC(=O)NCC(=O)N[C@@H](Cc1ccccc1)C(=O)N1Cc2ccccc2CC1C(=O)N1C(C(=O)NCC(=O)N[C@@H](CCN)C(=O)N2Cc3ccccc3CC2C(=O)N2C(C(=O)NCC(=O)N[C@@H](Cc3ccccc3)C(=O)N3Cc4ccccc4CC3C(=O)N3C(C(=O)NCC(=O)N[C@@H](CCN)C(=O)N4Cc5ccccc5CC4C(=O)N[C@@H](CCN)C(=O)N[C@@H](CCN)C(=O)N[C@@H](CCN)C(=O)N[C@@H](CCN)C(N)=O)CC4CCCCC43)CC3CCCCC32)CC2CCCCC21 (stereo partly drawn) [FKAB-1Gz, Ac-GF-Tic-Oic-G-Dab-Tic-Oic-GF-Tic-Oic-G-Dab-Tic-Dab-Dab-Dab-Dab-CONH2] (Ac-GF[ξTic][ξOic]G[Dab][ξTic][ξOic]GF[ξTic][ξOic]G[Dab][ξTic][Dab][Dab][Dab][Dab]-NH2)
- Minimum Inhibitory Concentration Staphylococcus aureus ME/GM/TC resistant [1]: 10 µM
- Minimum Inhibitory Concentration Mycobacterium ranae [2]: 10 µM
- Minimum Inhibitory Concentration F. tularensis SCHU-S4 (F. tularensis SCHU-S4): 125 µg/mL
- Minimum Inhibitory Concentration Bacillus anthracis Ames (Bacillus anthracis Ames; listed as 55): 0.98 µg/mL
- Minimum Inhibitory Concentration B. melitensis 16M (B. melitensis 16M): >500 µg/mL
- Minimum Inhibitory Concentration Plague CO92 (Plague CO92; listed as 55): 15.6 µg/mL
- remaining at 0.5 h, 1 μM (in vitro [3]): 119%
- remaining at 1 h, 1 μM (in vitro [4]): 3%
- remaining at 0.25 h, 1 μM (in vitro [5]): 21%
- remaining at 0.5 h, 1 μM (in vitro [5]): 7%
- remaining at 1 h, 1 μM (in vitro [5]): 80%
- remaining at 0.25 h, 1 μM (in vitro [6]): 74%
- remaining at 0.5 h, 1 μM (in vitro [6]): 29%
- remaining at 1 h, 1 μM (in vitro [6]): 42%

SMILES: CC(=O)NCC(=O)N[C@@H](Cc1ccccc1)C(=O)N1Cc2ccccc2CC1C(=O)NCC(=O)N[C@@H](CCCCN)C(=O)N1Cc2ccccc2CC1C(=O)NCC(=O)N[C@@H](Cc1ccccc1)C(=O)N1Cc2ccccc2CC1C(=O)NCC(=O)N[C@@H](CCCCN)C(=O)N1Cc2ccccc2CC1C(=O)N[C@@H](CCCCN)C(=O)N[C@@H](CCCCN)C(=O)N[C@@H](CCCCN)C(=O)N[C@@H](CCCCN)C(N)=O (stereo partly drawn) [FKAB-1Gg, Ac-GF-Tic-GK-Tic-GF-Tic-GK-Tic-KKKK-CONH2] (Ac-GF[ξTic]GK[ξTic]GF[ξTic]GK[ξTic]KKKK-NH2)
- MIC Salmonella typhimurium [7]: 100 µM (≈ 199 µg/mL)
- MIC Mycobacterium ranae [2]: 30.00 µM (≈ 59.6 µg/mL)
- MIC Bacillus Subtillis [8]: 10.00 µM (≈ 19.9 µg/mL)
- % hemolysis 100/25 μM (first value) (red blood cells; 100 μM): 6%
- % hemolysis 100/25 μM (second value) (red blood cells; 25): 4.9%
- Minimum Inhibitory Concentration F. tularensis SCHU-S4 (F. tularensis SCHU-S4): 250 µg/mL
- Minimum Inhibitory Concentration Bacillus anthracis Ames (Bacillus anthracis Ames; listed as 34): 0.98 µg/mL
- Minimum Inhibitory Concentration B. melitensis 16M (B. melitensis 16M): >500 µg/mL
- Minimum Inhibitory Concentration Plague CO92 (Plague CO92; listed as 34): 31.25 µg/mL

SMILES: CC(=O)NCC(=O)N[C@@H](Cc1ccccc1)C(=O)N1Cc2ccccc2CC1C(=O)N1C(C(=O)NCC(=O)N[C@@H](CCCCN)C(=O)N2Cc3ccccc3CC2C(=O)N2C(C(=O)NCC(=O)N[C@@H](Cc3ccccc3)C(=O)N3Cc4ccccc4CC3C(=O)N3C(C(=O)NCC(=O)N[C@@H](CCCCN)C(=O)N4Cc5ccccc5CC4C(=O)NCCCCCC(=O)N[C@@H](CCCCN)C(=O)N[C@@H](CCCCN)C(=O)N[C@@H](CCCCN)C(=O)N[C@@H](CCCCN)C(N)=O)CC4CCCCC43)CC3CCCCC32)CC2CCCCC21 (stereo partly drawn) [FKAB-1G-Ahx, Ac-GF-Tic-Oic-GK-Tic-Oic-GF-Tic-Oic-GK-Tic-Ahx-KKKK-CONH2] (Ac-GF[ξTic][ξOic]GK[ξTic][ξOic]GF[ξTic][ξOic]GK[ξTic][Ahx]KKKK-NH2)
- Minimum Inhibitory Concentration Staphylococcus aureus ME/GM/TC resistant [1]: 30 µM
- Minimum Inhibitory Concentration Mycobacterium ranae [2]: 10 µM
- Minimum Inhibitory Concentration F. tularensis SCHU-S4 (F. tularensis SCHU-S4): 250 µg/mL
- Minimum Inhibitory Concentration Bacillus anthracis Ames (Bacillus anthracis Ames; listed as 54): 1.95 µg/mL
- Minimum Inhibitory Concentration B. melitensis 16M (B. melitensis 16M): >500 µg/mL
- Minimum Inhibitory Concentration Plague CO92 (Plague CO92; listed as 54): 15.6 µg/mL
- remaining at 0.25 h, 1 μM (in vitro [9]): 112%
- remaining at 0.5 h, 1 μM (in vitro [4]): 79%
- remaining at 1 h, 1 μM (in vitro [4]): 84%
- remaining at 0.25 h, 1 μM (in vitro [5]): 120%
- remaining at 0.5 h, 1 μM (in vitro [5]): 106%
- remaining at 0.25 h, 1 μM (in vitro [6]): 97%
- remaining at 0.5 h, 1 μM (in vitro [6]): 98%
- remaining at 1 h, 1 μM (in vitro [6]): 113%

SMILES: CC(=O)NCC(=O)N[C@@H](Cc1ccccc1)C(=O)N1Cc2ccccc2C[C@H]1C(=O)N1[C@H](C(=O)NCC(=O)N[C@@H](CCCCN)C(=O)N2Cc3ccccc3C[C@H]2C(=O)N2[C@H](C(=O)NCC(=O)N[C@@H](Cc3ccccc3)C(=O)N3Cc4ccccc4C[C@H]3C(=O)N3[C@H](C(=O)NCC(=O)N[C@@H](CCCCN)C(=O)N4Cc5ccccc5C[C@H]4C(=O)NCCC(=O)N[C@@H](CCCCN)C(=O)N[C@@H](CCCCN)C(=O)N[C@@H](CCCCN)C(=O)N[C@@H](CCCCN)C(N)=O)C[C@@H]4CCCC[C@@H]43)C[C@@H]3CCCC[C@@H]32)C[C@@H]2CCCC[C@@H]21 [FKAB-1G-βA, Ac-GF-Tic-Oic-GK-Tic-Oic-GF-Tic-Oic-GK-Tic-βAla-KKKK-CONH2] (Ac-GF[Tic][Oic]GK[Tic][Oic]GF[Tic][Oic]GK[Tic][βAla]KKKK-NH2)
- Minimum Inhibitory Concentration Staphylococcus aureus ME/GM/TC resistant [1]: 30 µM
- Minimum Inhibitory Concentration Mycobacterium ranae [2]: 10 µM
- Minimum Inhibitory Concentration F. tularensis SCHU-S4 (F. tularensis SCHU-S4): 250 µg/mL
- Minimum Inhibitory Concentration Bacillus anthracis Ames (Bacillus anthracis Ames; listed as 52): 1.95 µg/mL
- Minimum Inhibitory Concentration B. melitensis 16M (B. melitensis 16M): >500 µg/mL
- Minimum Inhibitory Concentration Plague CO92 (Plague CO92; listed as 52): 31.25 µg/mL
- remaining at 0.5 h, 1 μM (in vitro [4]): 66%
- remaining at 1 h, 1 μM (in vitro [4]): 105%
- remaining at 0.25 h, 1 μM (in vitro [5]): 118%
- remaining at 1 h, 1 μM (in vitro [5]): 44%
- remaining at 0.25 h, 1 μM (in vitro [6]): 11%

SMILES: CC(=O)NCC(=O)N[C@@H](Cc1ccccc1)C(=O)N1Cc2ccccc2CC1C(=O)N1C(C(=O)NCC(=O)N[C@@H](Cc2c[nH]c3ccccc23)C(=O)N2Cc3ccccc3CC2C(=O)N2C(C(=O)NCC(=O)N[C@@H](Cc3ccccc3)C(=O)N3Cc4ccccc4CC3C(=O)N3C(C(=O)NCC(=O)N[C@@H](Cc4c[nH]c5ccccc45)C(=O)N4Cc5ccccc5CC4C(=O)N[C@@H](CCCCN)C(=O)N[C@@H](CCCCN)C(=O)N[C@@H](CCCCN)C(=O)N[C@@H](CCCCN)C(N)=O)CC4CCCCC43)CC3CCCCC32)CC2CCCCC21 (stereo partly drawn) [FKAB-1G-Trp, Ac-GF-Tic-Oic-GW-Tic-Oic-GF-Tic-Oic-GW-Tic-KKKK-CONH2] (Ac-GF[ξTic][ξOic]GW[ξTic][ξOic]GF[ξTic][ξOic]GW[ξTic]KKKK-NH2)
- Minimum Inhibitory Concentration Staphylococcus aureus ME/GM/TC resistant [1]: 30 µM
- Minimum Inhibitory Concentration Mycobacterium ranae [2]: 100 µM
- Minimum Inhibitory Concentration F. tularensis SCHU-S4 (F. tularensis SCHU-S4): >500 µg/mL
- Minimum Inhibitory Concentration Bacillus anthracis Ames (Bacillus anthracis Ames; listed as 57): 0.98 µg/mL
- Minimum Inhibitory Concentration B. melitensis 16M (B. melitensis 16M): >500 µg/mL
- Minimum Inhibitory Concentration Plague CO92 (Plague CO92; listed as 57): >500 µg/mL
- remaining at 0.25 h, 1 μM (in vitro [9]): 112%
- remaining at 0.25 h, 1 μM (in vitro [3]): 0%
- remaining at 0.5 h, 1 μM (in vitro [3]): 0%
- remaining at 1 h, 1 μM (in vitro [3]): 0%
- remaining at 0.5 h, 1 μM (in vitro [4]): 116%
- remaining at 0.5 h, 1 μM (in vitro [5]): 84%
- remaining at 1 h, 1 μM (in vitro [5]): 0%
- remaining at 0.25 h, 1 μM (in vitro [6]): 54%
- remaining at 0.5 h, 1 μM (in vitro [6]): 81%
- remaining at 1 h, 1 μM (in vitro [6]): 106%

SMILES: CC(=O)NCC(=O)N[C@@H](Cc1ccccc1)C(=O)N1Cc2ccccc2CC1C(=O)N1C(C(=O)NCC(=O)N[C@@H](CCCCN)C(=O)N2Cc3ccccc3CC2C(=O)N2C(C(=O)NCC(=O)N[C@@H](Cc3ccccc3)C(=O)N3Cc4ccccc4CC3C(=O)N3C(C(=O)NCC(=O)N[C@@H](CCCCN)C(=O)N4Cc5ccccc5CC4C(=O)NCCCC(=O)N[C@@H](CCCCN)C(=O)N[C@@H](CCCCN)C(=O)N[C@@H](CCCCN)C(=O)N[C@@H](CCCCN)C(N)=O)CC4CCCCC43)CC3CCCCC32)CC2CCCCC21 (stereo partly drawn) [FKAB-1G-Gaba, Ac-GF-Tic-Oic-GK-Tic-Oic-GF-Tic-Oic-GK-Tic-Gaba-KKKK-CONH2] (Ac-GF[ξTic][ξOic]GK[ξTic][ξOic]GF[ξTic][ξOic]GK[ξTic][GABA]KKKK-NH2)
- Minimum Inhibitory Concentration Staphylococcus aureus ME/GM/TC resistant [1]: 10 µM
- Minimum Inhibitory Concentration Mycobacterium ranae [2]: 3 µM
- Minimum Inhibitory Concentration F. tularensis SCHU-S4 (F. tularensis SCHU-S4): >500 µg/mL
- Minimum Inhibitory Concentration Bacillus anthracis Ames (Bacillus anthracis Ames; listed as 53): 0.98 µg/mL
- Minimum Inhibitory Concentration B. melitensis 16M (B. melitensis 16M): >500 µg/mL
- Minimum Inhibitory Concentration Plague CO92 (Plague CO92; listed as 53): 31.25 µg/mL
- remaining at 0.25 h, 1 μM (in vitro [9]): 118%
- remaining at 0.25 h, 1 μM (in vitro [3]): 117%
- remaining at 0.5 h, 1 μM (in vitro [3]): 120%
- remaining at 0.5 h, 1 μM (in vitro [4]): 80%
- remaining at 1 h, 1 μM (in vitro [4]): 86%
- remaining at 0.25 h, 1 μM (in vitro [5]): 113%
- remaining at 0.5 h, 1 μM (in vitro [5]): 72%
- remaining at 1 h, 1 μM (in vitro [5]): 104%
- remaining at 0.25 h, 1 μM (in vitro [6]): 88%
- remaining at 0.5 h, 1 μM (in vitro [6]): 71%
- remaining at 1 h, 1 μM (in vitro [6]): 66%
